PMC10424179, “Disrupting Kaposi’s Sarcoma-Associated Herpesvirus (KSHV) Latent Replication with a Small Molecule Inhibitor” (Journal of Medicinal Chemistry, 2023)
In brackets after ≈: the same amount, converted by molar mass.

How the values were obtained:
[1] = molecular target: T1, oligomerization-deficient mutant of a LANA C-terminal protein fragment (aa 1008–1146) (Human herpesvirus 8 (Kaposi's sarcoma-associated herpesvirus), UniProt Q76SB0); test: Microscale thermophoresis (MST) binding assay; design: species or system Kaposi's sarcoma-associated herpesvirus (KSHV); conditions: read-out: KD value (MST); LANA aa 1008–1146 mutant; means of at least three replicates
T1 sequence (Q76SB0 1008-1146): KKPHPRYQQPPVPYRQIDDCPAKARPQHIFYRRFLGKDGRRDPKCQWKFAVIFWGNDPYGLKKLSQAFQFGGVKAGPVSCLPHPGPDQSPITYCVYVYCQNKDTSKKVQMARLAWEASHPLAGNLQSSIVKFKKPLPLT
From the text: (§1) In these assays, an oligomerization-deficient mutant of a LANA C-terminal protein fragment (aa 1008–1146) and an oligonucleotide representing LANA-binding site (LBS) 1 were used, which are convenient to use and handle for the described biophysical methods, while maintaining the essential DNA-binding interface.[25]
Equation y = A2 + (A1-A2)/(1 + (x/x0)^p)
1.3 Microscale Thermophoresis (MST) Assay
Microscale Thermophoresis Assay was done as mentioned in a previous publication. 2

[2] = molecular target: LANA–DNA interaction (oligomerization-deficient LANA DBD aa 1008–1146 mutant / LBS1) (Human herpesvirus 8 (Kaposi's sarcoma-associated herpesvirus), UniProt Q76SB0); test: Electrophoretic mobility shift assay (EMSA), LANA DBD mutant with LBS1 oligonucleotide; assay type: biochemical, Kaposi's sarcoma-associated herpesvirus (KSHV); conditions: compound at 250 μM; LBS1 oligonucleotide; LANA aa 1008–1146 mutant
Method: as §1
Equation y = A2 + (A1-A2)/(1 + (x/x0)^p) […]
1.4 Electrophoretic Mobility Shift Assay (EMSA)
The EMSA was carried out with slight modific ations as described previously 2 based on the assay in Hellert et al. (2013). 3 His-tagged oligomerization-deficient LANA DBD (aa1008-1146) mutant protein or LANA DBD (aa934-1162) wild type protein (200 nM final) was incubated with a 5´-Dy682-labeled double stranded DNA probe (IBA Lifesciences) (20 nM final) for 30 minutes at RT in the dark. The reaction buffer consisted of 30 mM Tris HCl pH 7.5, 50 mM KCl, 10 mM MgCl2, 1 mM DTT, 1 mM EDTA, 10% glycerol, 0.25% Tween20, 0.5 mg/mL BSA and 0.05 mg/mL poly(dI-dC). […]
dark. 10 µL of the reaction was run on a pre -run native 5% acrylamide gel for 45 minutes at 100V with tris-borate-EDTA buffer. Images of the gels were acquired and analysed with the Odyssey (Licor) using the Image Studio software.
Fig S2: Gels of EMSA experiments at 250 μM for all compounds (A) and dose-dependent curves for compound 20 using LANA DBD mutant (B) and LANA wildtype (C) as well as LBS1. Values are means […]
Gleichung y = A2 + (A1-A2)/(1 + (x/x0)^p) […]

Kinetic solubility = assay type: physicochemical; conditions: PBS with 1% DMSO; 1% DMSO in PBS, pH 7.4
Method: (§2) The next step was an in vitro ADMET profiling of the best seven compounds so far: 9, 11, 14, 19, 20, 21, and 27. The compounds were tested for their kinetic solubility (1% DMSO in PBS, pH 7.4), lipophilicity (chromatographic Log D7.4 value), cellular permeability (using Caco-2 cells), and metabolic stability (using mouse and human liver S9 fractions) (see Table 3).
The desired compounds were sequentially diluted in DMSO in a 96-well plate. 1.5 µL of each well were transferred into another 96-well plate and mixed with 148.5 µL of PBS. Plates were shaken for 5 min at 600 rpm at room temperature (r.t.), and the absorbance at 620 nm was measured. Absorbance values were normalized by blank subtraction and plotted using GraphPad Prism 8.4.2 (GraphPad Software, San Diego, CA, USA). Solubility (S) was determined based on the First X value of AUC function using a threshold of 0.005. […]

[3] = Metabolic stability in human liver S9 fraction; assay type: in vitro ADME; conditions: human liver S9, 1 μM compound
Method: as §2, with “3). […]” for “3).”
(§3) 1.7 Metabolic Stability in Liver S9 Fractions
(§4) For the evaluation of combined phase I and phase II metabolic stability, the compound (1 μM) was incubated with 1 mg/mL pooled mouse liver S9 fraction (Xenotech, Kansas City, USA) or human liver S9 fraction (Corning, USA), 2 mM NADPH, 1 mM UDPGA, 10 mM MgCl 2, 5 mM GSH and 0.1 mM PAPS at 37 °C for 240 min. The metabolic stability of testosterone, verapamil and ketoconazole were determined in parallel to confirm the enzymatic activity of mouse S9 fractions, for human S9 testosterone, diclofenac and propranolol were used. The incubation was stopped after defined time points by precipitation of aliquots of S9 enzymes with 2 volumes of cold acetonitrile containing internal standard (150 nM diphenhydramine). Samples were stored on ice until the end of the incubation and precipitated protein was removed by centrifugation (15 min, 4 °C, 4,000 g). Concentration of the remaining test compound at the different time points was analyzed by HPLC-MS/MS (TSQ Quantum Access MAX, Thermo Fisher, Dreieich, Germany) and used to determine half -life (t1/2). Values are means of three

[4] = Metabolic stability in mouse liver S9 fraction; assay type: in vitro ADME; conditions: pooled liver S9 fraction, mouse liver S9, 1 μM compound
Method: as §2, with “3). […]” for “3).”
as §3, §4

Caco-2 cell permeability = assay type: in vitro ADME; conditions: human, pH 7.4, Caco-2 monolayer, apical to basolateral
Method: as §2
MTT Assay: Viability of HEK293 cells ~48 hours after treatment […]
Fig S4: MTT assay for compounds 11, 14, 19, 20 and 21 using HEK293 cells. Values are means of […]
Permeability of the compounds was assessed using Caco2 monolayers grown on Transwell® (3460 Costar, Corning). In brief, cells were seeded 60.000 cells/well in 12-well Transwell plates in DMEM medium supplemented with 10% FCS and 1% NEAA. Cells were grown for 7 to 9 days with medium replacement every other day until they reached a tight monolayer. Tightness was defined as transepithelial resistance (TEER) values >300 Ω/cm² (measured using an EVOM Volt-Ohmmeter, World Precision Instruments). At the day of permeability as say, the compound stock solutions in DMSO were diluted to 10µM in Krebs -Ringer-buffer (KRB, pH 7.4). Cells treated with KRB only served as control. Monolayer was washed two times with prewarmed KRB and incubated with 500 µl sample on the apical compartment. Samples from the basolateral side were drawn at t = 0, 15, 30, 60, 120, 180 and 300 min and replaced with fresh buffer. The plates were incubated for 5 h in a cell culture incubator with lateral shaking (200 rpm). TEER values were measured again at the end of the permeability test. Compound concentration was determined with HPLC-ESI-MS/MS in SRM mode and calculated for the cumulative transport. Values are means of three replicates.

Chromatographic LogD7.4 = assay type: physicochemical; conditions: reversed-phase HPLC, NUCLEODUR C18 Pyramid column; pH 7.4, HPLC-MS based; read-out: Chrom. LogD7.4
Method: as §2, with “3). […]” for “3).”
LogD7.4 was analyzed using an HPLC−MS based method. The retention time of 12 compounds with known LogD7.4 was determined and plotted toward their LogD7.4. Linear regression was used to determine the LogD7.4 of unknown compounds. Analysis was performed using a Dionex Ultimate 3000 HPLC system coupled to a TSQ Quantum Access MAX (Thermo Fisher, Dreieich, Germany) with the following conditions: EC150/2 NUCLEODUR C18 Pyramid column, 5 μM (Macherey Nagel, Düren, Germany); eluent A: 50 mM NH4OAc pH 7.4, eluent B: acetonitrile, and flow: 0.6 mL/min. The gradient was set to 0−100% B from 0 to 2.5 min, […]
are means of two replicates. […]

| Structure (SMILES) | Kd [1] | Inhibition (EMSA, LBS1) @250 μM [2] | further results |
| --- | --- | --- | --- |
| Cc1cc(-c2cccnc2)ncc1-n1cc(-c2ccc(C(=O)O)cc2)nn1 [Compound 4] | 81.3 ± 10.5 µM |  |  |
| Cc1cc(-c2ccncc2)ncc1-n1cc(-c2ccc(C(=O)O)cc2)nn1 [Compound 5] | 57.5 ± 6.8 µM |  |  |
| Cc1cc(-c2cncnc2)ncc1-n1cc(-c2ccc(C(=O)O)cc2)nn1 [Compound 6] | 13.3 ± 2.5 µM | 74% |  |
| Cc1cc(-c2cncc(O)c2)ncc1-n1cc(-c2ccc(C(=O)O)cc2)nn1 [Compound 7] | 48.3 ± 11.8 µM |  |  |
| Cc1cc(-c2ccc(O)nc2)ncc1-n1cc(-c2ccc(C(=O)O)cc2)nn1 [Compound 8] | 13.8 ± 2.7 µM | 42% |  |
| COc1cncc(-c2cc(C)c(-n3cc(-c4ccc(C(=O)O)cc4)nn3)cn2)c1 [Compound 9] | 11 ± 1.9 µM | 97% | solubility kinetic at 5 min (Kinetic solubility): 139 ± 18 µM (≈ 53.8 µg/mL); microsomal CLint at 1 µM ([3]; read-out: MetStab Human Liver S9 Clint): < 5.8 µL/min/mg; half-life at 1 µM ([3]; read-out: MetStab Human Liver S9 t1/2): > 120 min; microsomal CLint at 1 µM ([4]; read-out: MetStab Mouse Liver S9 Clint): < 5.8 µL/min/mg; half-life at 1 µM ([4]; read-out: MetStab Mouse Liver S9 t1/2): > 120 min; Papp A→B at 5 h, 10 µM (Caco-2 cell permeability): 2 ± 0.5 ×10⁻⁶ cm/s; chromatographic logD (Chromatographic LogD7.4): -0.36 |
| COc1ccc(-c2cc(C)c(-n3cc(-c4ccc(C(=O)O)cc4)nn3)cn2)cn1 [Compound 10] | 9.2 ± 2.1 µM | n.i. (n.i. = no inhibition for inhibition <10%) |  |
| Cc1cc(-c2cnc3ccccc3c2)ncc1-n1cc(-c2ccc(C(=O)O)cc2)nn1 [Compound 12] | 31 ± 2.5 µM |  |  |
| Cc1cc(-c2ccccc2)ncc1-n1cc(-c2ccc(C(=O)O)cc2)nn1 [Compound 13] | 7.6 ± 2 µM | n.i. (n.i. = no inhibition for inhibition <10%) |  |
| Cc1cc(-c2cccc(Cl)c2)ncc1-n1cc(-c2ccc(C(=O)O)cc2)nn1 [Compound 15] | 22.1 ± 4.8 µM | n.i. (n.i. = no inhibition for inhibition <10%) |  |
| Cc1cc(-c2ccc(Cl)cc2)ncc1-n1cc(-c2ccc(C(=O)O)cc2)nn1 [Compound 16] | 37.7 ± 59.3 µM |  |  |
| COc1ccccc1-c1cc(C)c(-n2cc(-c3ccc(C(=O)O)cc3)nn2)cn1 [Compound 17] | 18 ± 2.7 µM | 38% |  |
| COc1cccc(-c2cc(C)c(-n3cc(-c4ccc(C(=O)O)cc4)nn3)cn2)c1 [Compound 18] | 9.6 ± 2.8 µM | n.i. (n.i. = no inhibition for inhibition <10%) |  |
| Cc1cc(-c2cccc(O)c2)ncc1-n1cc(-c2ccc(C(=O)O)cc2)nn1 [Compound 22] | 26.4 ± 3.4 µM |  |  |
| Cc1cc(-c2ccc(O)cc2)ncc1-n1cc(-c2ccc(C(=O)O)cc2)nn1 [Compound 23] | 30.9 ± 3 µM |  |  |
| CNC(=O)c1cccc(-c2cc(C)c(-n3cc(-c4ccc(C(=O)O)cc4)nn3)cn2)c1 [Compound 24] | 4.3 ± 0.9 µM | 40% |  |
| CNC(=O)c1ccc(-c2cc(C)c(-n3cc(-c4ccc(C(=O)O)cc4)nn3)cn2)cc1 [Compound 25] | 30.9 ± 3.1 µM |  |  |
| Cc1cc(-c2cccc(C(=O)O)c2)ncc1-n1cc(-c2ccc(C(=O)O)cc2)nn1 [Compound 26] | 12.1 ± 3.7 µM | n.i. (n.i. = no inhibition for inhibition <10%) |  |
| Cc1cc(-c2cccc(Oc3ccccc3)c2)ncc1-n1cc(-c2ccc(C(=O)O)cc2)nn1 [Compound 28] | 71.1 ± 9.3 µM |  |  |
| Cc1cc(-c2cccc(OCc3ccccc3)c2)ncc1-n1cc(-c2ccc(C(=O)O)cc2)nn1 [Compound 29] | 84.8 ± 5.6 µM |  |  |
| Cc1cc(-c2cccc(OCc3ccccc3Cl)c2)ncc1-n1cc(-c2ccc(C(=O)O)cc2)nn1 [Compound 30] | 159 ± 74 µM |  |  |
| COc1ccccc1COc1cccc(-c2cc(C)c(-n3cc(-c4ccc(C(=O)O)cc4)nn3)cn2)c1 [Compound 31] | 30.8 ± 15.9 µM |  |  |
| COc1cccc(COc2cccc(-c3cc(C)c(-n4cc(-c5ccc(C(=O)O)cc5)nn4)cn3)c2)c1 [Compound 32] | 31.3 ± 3 µM |  |  |
| COc1cc(COc2cccc(-c3cc(C)c(-n4cc(-c5ccc(C(=O)O)cc5)nn4)cn3)c2)cc(OC)c1 [Compound 33] | 96.7 ± 9 µM |  |  |
| COc1ccc(COc2cccc(-c3cc(C)c(-n4cc(-c5ccc(C(=O)O)cc5)nn4)cn3)c2)cc1 [Compound 34] | 5.3 ± 4 µM | 31% |  |
| COc1ccc(COc2ccccc2-c2cc(C)c(-n3cc(-c4ccc(C(=O)O)cc4)nn3)cn2)cc1 [Compound 35] | 46.1 ± 5.8 µM |  |  |
| COc1ccc(COc2ccc(-c3cc(C)c(-n4cc(-c5ccc(C(=O)O)cc5)nn4)cn3)cc2)cc1 [Compound 36] | 26 ± 3.8 µM |  |  |
